Tests used:
Type in all cases: in vivo
[1] = test system: galium (catchweed bedstraw, Galium aparine); experiment: Test C preemergence, plant response rating
[2] = test system: johnsongrass (Sorghum halepense); experiment: Test C preemergence, plant response rating
[3] = test system: barnyardgrass (Echinochloa crus-galli); experiment: Test C preemergence, plant response rating; conditions: Echinochloa crus-galli, pre-emergence, Preemergence
[4] = test system: pigweed, palmer (palmer pigweed, Amaranthus palmeri); experiment: Test C preemergence, plant response rating
kochia (Kochia scoparia) = experiment: Test C preemergence, plant response rating
[5] = test system: windgrass (Apera spica-venti); experiment: Test C preemergence, plant response rating
[6] = test system: Canada thistle (Cirsium arvense); experiment: Test C postemergence, plant response rating; conditions: for Canada Thistle plant response rating: scale 0 to 100 (0 no effect, 100 complete control)
Outline: (§1)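 Both timings shared one formulation, a non-phytotoxic solvent mixture with surfactant, and a greenhouse period of 13 to 15 d. Preemergence used seeded loam/sand or silt loam soil, postemergence used 2 to 18 cm plants; visual ratings ran from 0 (no effect) to 100 (complete control).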

[7] = test system: buckwheat, wild (wild buckwheat, Polygonum convolvulus); experiment: Test C postemergence, plant response rating; conditions: for Buckwheat, Wild plant response rating: scale 0 to 100 (0 no effect, 100 complete control)
Outline: as §1

[8] = test system: field poppy (Papaver rhoeas); experiment: Test C postemergence, plant response rating; conditions: for Field Poppy plant response rating: scale 0 to 100 (0 no effect, 100 complete control)
Outline: as §1

[9] = test system: field violet (Viola arvensis); experiment: Test C postemergence, plant response rating; conditions: for Field Violet plant response rating: scale 0 to 100 (0 no effect, 100 complete control)
Outline: as §1

[10] = test system: geranium, cutleaf (cutleaf geranium, Geranium dissectum); experiment: Test C postemergence, plant response rating; conditions: for Geranium, Cutleaf plant response rating: scale 0 to 100 (0 no effect, 100 complete control)
Outline: as §1

[11] = test system: johnsongrass (Sorghum halepense); experiment: Test C postemergence, plant response rating; conditions: for Johnsongrass plant response rating: scale 0 to 100 (0 no effect, 100 complete control)
Outline: as §1

[12] = test system: nightshade (eastern black nightshade, Solanum ptycanthum); experiment: Test C postemergence, plant response rating; conditions: for Nightshade plant response rating: scale 0 to 100 (0 no effect, 100 complete control)
Outline: as §1

[13] = test system: pigweed, palmer (palmer pigweed, Amaranthus palmeri); experiment: Test C postemergence, plant response rating; conditions: for Pigweed, Palmer plant response rating: scale 0 to 100 (0 no effect, 100 complete control)
Outline: as §1

[14] = test system: speedwell (bird's-eye speedwell, Veronica persica); experiment: Test C postemergence, plant response rating; conditions: for Speedwell plant response rating: scale 0 to 100 (0 no effect, 100 complete control)
Outline: as §1

[15] = test system: surinam grass (Brachiaria decumbens); experiment: Test C postemergence, plant response rating
Outline: as §1

[16] = test system: wild mustard (Sinapis arvensis); experiment: Test C postemergence, plant response rating; conditions: for Mustard, Wild plant response rating: scale 0 to 100 (0 no effect, 100 complete control)
Outline: as §1

[17] = test system: wild poinsettia (Euphorbia heterophylla); experiment: Test C postemergence, plant response rating; conditions: for Poinsettia, Wild plant response rating: scale 0 to 100 (0 no effect, 100 complete control)
Outline: as §1

[18] = test system: windgrass (Apera spica-venti); experiment: Test C postemergence, plant response rating
Outline: as §1

[19] = 125 g ai/ha, scale 0 to 100 (0 no effect, 100 complete control)

`O=C(CCC(F)(F)F)c1c(Cl)cccc1Oc1ncc(Cl)cn1` [Compound 107, 1-[2-chloro-6-[(5-chloro-2-pyrimidinyl)oxy]phenyl]-4,4,4-trifluoro-1-butanone] was tested, and the “Plant response rating, Galium” value ([1]; 31 g ai/ha, scale 0 to 100) was 60, the “Plant response rating, Galium” value ([1]; 62 g ai/ha, scale 0 to 100) was 90 and the “Plant response rating, Galium” value ([1]; 125 g ai/ha, scale of 0 to 100) was 95. The “Plant response rating, Johnsongrass” value ([2]; 31 g ai/ha, scale 0 to 100) was 30, the “Plant response rating, Johnsongrass” value ([2]; 62 g ai/ha, scale 0 to 100) was 70 and the “Plant response rating, Johnsongrass” value ([2]; 125 g ai/ha, scale of 0 to 100) was 80. The pest or weed control at 125 g/ha ([3]; 125 g ai/ha, scale of 0 to 100) was 100%, the pest or weed control at 16 g/ha ([3]; 16 g ai/ha, scale 0 to 100) was 65% and the pest or weed control at 31 g/ha ([3]; 31 g ai/ha, scale 0 to 100) was 85%. For the same compound, the pest or weed control at 62 g/ha ([3]; 62 g ai/ha, scale 0 to 100) was 100%, the “Plant response rating, Pigweed, Palmer” value ([4]; 31 g ai/ha, scale 0 to 100) was 100 and the “Plant response rating, Pigweed, Palmer” value ([4]; 62 g ai/ha, scale 0 to 100) was 100. For the same compound, the “Plant response rating, Pigweed, Palmer” value ([4]; 125 g ai/ha, scale of 0 to 100) was 100, the “Plant response rating, Kochia” value (kochia (Kochia scoparia); 31 g ai/ha, scale 0 to 100) was 100 and the “Plant response rating, Kochia” value (kochia (Kochia scoparia); 62 g ai/ha, scale 0 to 100) was 100. For the same compound, the “Plant response rating, Kochia” value (kochia (Kochia scoparia); 125 g ai/ha, scale of 0 to 100) was 100, the “Plant response rating, Windgrass” value ([5]; 31 g ai/ha, scale 0 to 100) was 100 and the “Plant response rating, Windgrass” value ([5]; 62 g ai/ha, scale 0 to 100) was 100. For the same compound, the “Plant response rating, Windgrass” value ([5]; 125 g ai/ha, scale of 0 to 100) was 100, the “Plant response rating, Canada Thistle” value ([6]; 16 g ai/ha, scale of 0 to 100) was 80 and the “Plant response rating, Canada Thistle” value ([6]; 31 g ai/ha, scale 0 to 100) was 85. The “Canada Thistle plant response rating” value ([6]; 62 g ai/ha) was 90, the “Canada Thistle plant response rating” value ([6]; 125 g ai/ha) was 90 and the “Plant response rating, Buckwheat, Wild” value ([7]; 16 g ai/ha, scale of 0 to 100) was 45. The “Plant response rating, Buckwheat, Wild” value ([7]; 31 g ai/ha, scale 0 to 100) was 75, the “Buckwheat, Wild plant response rating” value ([7]; 62 g ai/ha) was 75 and the “Buckwheat, Wild plant response rating” value ([7]; 125 g ai/ha) was 100. For the same compound, the “Plant response rating, Field Poppy” value ([8]; 16 g ai/ha, scale of 0 to 100) was 80, the “Plant response rating, Field Poppy” value ([8]; 31 g ai/ha, scale 0 to 100) was 98 and the “Field Poppy plant response rating” value ([8]; 62 g ai/ha) was 98. The “Field Poppy plant response rating” value ([8]; 125 g ai/ha) was 100, the “Plant response rating, Field Violet” value ([9]; 16 g ai/ha, scale of 0 to 100) was 95 and the “Plant response rating, Field Violet” value ([9]; 31 g ai/ha, scale 0 to 100) was 98. The “Field Violet plant response rating” value ([9]; 62 g ai/ha) was 98, the “Field Violet plant response rating” value ([9]; 125 g ai/ha) was 100 and the “Plant response rating, Geranium, Cutleaf” value ([10]; 16 g ai/ha, scale of 0 to 100) was 25. The “Plant response rating, Geranium, Cutleaf” value ([10]; 31 g ai/ha, scale 0 to 100) was 35, the “Geranium, Cutleaf plant response rating” value ([10]; 62 g ai/ha) was 60 and the “Geranium, Cutleaf plant response rating” value ([10]; 125 g ai/ha) was 75. For the same compound, the “Plant response rating, Johnsongrass” value ([11]; 16 g ai/ha, scale of 0 to 100) was 20, the “Plant response rating, Johnsongrass” value ([11]; 31 g ai/ha, scale 0 to 100) was 10 and the “Johnsongrass plant response rating” value ([11]; 62 g ai/ha) was 35. The “Johnsongrass plant response rating” value ([11]; 125 g ai/ha) was 98, the “Plant response rating, Nightshade” value ([12]; 16 g ai/ha, scale of 0 to 100) was 75 and the “Plant response rating, Nightshade” value ([12]; 31 g ai/ha, scale 0 to 100) was 90. The “Nightshade plant response rating” value ([12]; 62 g ai/ha) was 98, the “Nightshade plant response rating” value ([12]; 125 g ai/ha) was 100 and the “Plant response rating, Pigweed, Palmer” value ([13]; 16 g ai/ha, scale of 0 to 100) was 90. For the same compound, the “Plant response rating, Pigweed, Palmer” value ([13]; 31 g ai/ha, scale 0 to 100) was 95, the “Pigweed, Palmer plant response rating” value ([13]; 62 g ai/ha) was 100 and the “Pigweed, Palmer plant response rating” value ([13]; 125 g ai/ha) was 100. The “Plant response rating, Speedwell” value ([14]; 16 g ai/ha, scale of 0 to 100) was 100, the “Plant response rating, Speedwell” value ([14]; 31 g ai/ha, scale 0 to 100) was 100 and the “Speedwell plant response rating” value ([14]; 62 g ai/ha) was 100. For the same compound, the “Speedwell plant response rating” value ([14]; 125 g ai/ha) was 100, the “Plant response rating, Surinam Grass” value ([15]; 16 g ai/ha, scale of 0 to 100) was 10 and the “Plant response rating, Surinam Grass” value ([15]; 31 g ai/ha, scale 0 to 100) was 25. For the same compound, the “Surinam Grass plant response rating” value [15, 19] was 35, the “Plant response rating, Mustard, Wild” value ([16]; 16 g ai/ha, scale of 0 to 100) was 85 and the “Plant response rating, Mustard, Wild” value ([16]; 31 g ai/ha, scale 0 to 100) was 90. The “Mustard, Wild plant response rating” value ([16]; 62 g ai/ha) was 95, the “Mustard, Wild plant response rating” value ([16]; 125 g ai/ha) was 100 and the “Plant response rating, Poinsettia, Wild” value ([17]; 16 g ai/ha, scale of 0 to 100) was 70. The “Plant response rating, Poinsettia, Wild” value ([17]; 31 g ai/ha, scale 0 to 100) was 75, the “Poinsettia, Wild plant response rating” value ([17]; 62 g ai/ha) was 90 and the “Poinsettia, Wild plant response rating” value ([17]; 125 g ai/ha) was 90. The “Plant response rating, Windgrass” value ([18]; 16 g ai/ha, scale of 0 to 100) was 5, the “Plant response rating, Windgrass” value ([18]; 31 g ai/ha, scale 0 to 100) was 15 and the “Windgrass plant response rating” value [18, 19] was 50.

Reference: patent publication US11053204B2, “Pyrimidinyloxy benzene derivatives as herbicides” (FMC Corporation, priority 2015, dated 2021)
